Measurements reported in patent publication US12385839B2, “Use of protein in predicting drug properties” (priority 2021, dated 2025).
Like-named read-outs stand apart in the source and are kept apart here.

How the values were obtained:
[1] = target: T1, human serum albumin (HSA) (Homo sapiens, UniProt P02768); assay: Fluorescence emission spectrum (quenching) of HSA with carbamate pesticides; assay type: binding; conditions: for Ksv (37°) / ΔG(37°) / Binding distance/r / Number of binding sites/n: modelling table; for Kq / Ksv / n (number of binding sites) / Kd: pH 7.4; for R (binding distance): Förster energy transfer; for fluorescence of HSA quenched by pesticide: titration of pesticide; for ΔH^0 / ΔS^0: Van't Hoff, 296-310 K
T1 sequence (P02768 25-609): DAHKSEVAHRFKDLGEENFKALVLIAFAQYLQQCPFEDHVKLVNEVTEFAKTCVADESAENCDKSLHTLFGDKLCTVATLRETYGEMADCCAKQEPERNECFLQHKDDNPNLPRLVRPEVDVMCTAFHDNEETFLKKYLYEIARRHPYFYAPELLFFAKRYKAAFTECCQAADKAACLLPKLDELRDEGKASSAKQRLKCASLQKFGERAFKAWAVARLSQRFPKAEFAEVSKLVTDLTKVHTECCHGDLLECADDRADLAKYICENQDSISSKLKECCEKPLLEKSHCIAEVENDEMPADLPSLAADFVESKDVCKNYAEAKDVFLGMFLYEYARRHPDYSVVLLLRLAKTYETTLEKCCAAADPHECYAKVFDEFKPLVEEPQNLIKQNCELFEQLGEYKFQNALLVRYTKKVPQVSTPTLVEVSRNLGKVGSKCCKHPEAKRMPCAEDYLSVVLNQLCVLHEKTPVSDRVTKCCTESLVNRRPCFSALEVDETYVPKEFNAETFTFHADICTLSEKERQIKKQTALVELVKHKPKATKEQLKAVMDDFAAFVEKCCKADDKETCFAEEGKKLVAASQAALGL
Description: the mixed solution to be tested was preheated at […] for 3 minutes, and the emission spectrum of HSA with carbamate pesticides was measured at 300-500 nm . The excitation wavelength was set at 280 nm , and the slit width for both excitation and emission was 15 nm; the HSA concentration was kept constant at 5×10^−7 M, and the pesticide concentration was (0-105)×10^−7 M.
The internal filtering effect of fluorescence signal was corrected according to the following formula: Fcor=Fobsexp[(Aex+Aem)/2] (1);
in this formula, Fcor and Fobs represent corrected fluorescence signal and observed fluorescence signal, respectively, and Aex and Aem represent absorbance of the mixed solution to be tested at excitation wavelength and emission wavelengths, respectively; the quenching constant, number of binding sites, binding constant, free energy and binding distance of different drugs were obtained by fluorescence emission spectra, and a BP neural network model was obtained. Specifically, they were obtained as follows:
There is a linear relationship between F0/F and [Q] to distinguish whether it is static quenching or dynamic quenching. The fluorescence quenching data are analyzed by Stern-Volmer equation to clarify the quenching mechanism: F0/F=1+KSV[Q]=1+Kqτ0[Q] (2);
in the formula, F0 and F are fluorescence signals […] quencher, respectively. Ksv is Stern-Volmer quenching constant; Kq is a quenching rate constant of biomolecules; τ0 is the average lifetime of biomolecules without quencher (about 10^−8 s); [Q] is the concentration of quencher.
The maximum dynamic quenching rate constant of all kinds of quenchers on polymers was 2.0×10^10 L·mol^−1·s^−1. Static quenching and dynamic quenching could be judged according to this value. If K^q was greater than 2.0×10^10 L·mol^−1·s^−1, it belonged to static quenching. Otherwise, it belonged to dynamic quenching.
In this part, the binding sites and binding constants between carbamate pesticides and HSA were calculated. The following formula was used to calculate the number of binding sites (n) and the binding constant (Ka) of carbamate pesticides and HSA: log[(F0−F)/F]=log Ka+nlog[Q] (3);
The interactions between biological molecules and drug molecules were weak intermolecular interactions, including hydrogen bonds, van der Waals forces, electrostatic forces and hydrophobic interactions. By using Van't Hoff equation, the thermodynamic constants of drug-protein interaction were obtained, and the main types of drug-protein interaction were judged according to the changes of binding constants under different conditions. LnK=−ΔH^0/RT+ΔS^0/R (4); ΔG^0=ΔH^0−TΔS^0 (5);
There is a relationship among energy transfer efficiency E, distance r between energy donor and energy receptor and energy transfer distance R0. E=1−F/F0=R0^6/(R0^6+r^6) (6);
E represents the transfer efficiency between donor and receptor, r is the average distance between donor and receptor, and R0 is the critical distance when the transfer efficiency is 50%. R0^6=8.79×10^−K^2N^−4φJ (7)
K^2 is the orientation related to the geometry of donor and receptor of dipole. For random orientation in fluid, K^2=2/3; N is the average refractive index of the medium in the wavelength range with obvious spectral overlap, and the refractive index of water and organic matter is 1.336; φ is the quantum yield of donor, and the quantum yield of tryptophan in HSA is about 0.118; J represents the influence of spectral overlap between the emission spectrum of the donor and the absorption spectrum of the receptor, and can be calculated by the following formula: j=ΣF(λ)ϵ(λ)λ^4Δλ/ΣF(λ) Δλ (8);
F(λ) is the corrected fluorescence signal of the donor in the wavelength range from λ to (λ+Δλ), while ϵ(λ) is the extinction coefficient of the receptor at λ.

[2] = target: T1, human serum albumin (HSA); assay: Circular dichroism spectrum, secondary structure (α-helix content) of HSA; conditions: HSA 2×10^−6 M
Description: the mixed solution to be tested was preheated at […] for 2-5 minutes, and the CD spectrum of HSA was recorded in the wavelength range of 200-500 nm . The concentration of HSA was kept at 2×10^−6 M, and the pesticide was (0-20)×10^−6 m. Firstly, HSA was measured, and then the ratio of HSA to pesticides needed to be determined specifically, which was preliminarily determined according to the ratio of 1:1, 1:2 and 1:3.
According to the following equation, the result of CD spectrum was usually expressed as the mean residue ellipticity (MRE), and the unit was deg·cm^2·dmol^−1. MRE=ObservedCD(mdeg)/(10Cpnl) (9);
in which Cp is the molar concentration of protein, n is the number (585) of amino acid residues, and 1 is the path length (1 mm). The α helicity of free and bound HSA is calculated from MRE values using the following formula: α−Helix(%)=[(−MRE208−4000)×100]/(33000-4000) (10)
in which the MRE208 is the MRE value observed at 208 nm , 4000 is the MRE value of random coil conformation at 208 nm , and […] is the MRE value of pure α helix at 208 nm .

[3] = cited from earlier work; for LD50: modelling table; for Toxicity: toxicity grade by LD50, trailing figure = number of pesticides in group

SMILES | Ksv (37°) [1] | ΔG(37°) [1] | ΔG^0 ([1]; 296 K) | Kq ([1]; 296 K) | Ksv ([1]; 296 K) | n (number of binding sites) ([1]; 296 K) | ΔG^0 ([1]; 303 K) | Kq ([1]; 303 K) | Ksv ([1]; 303 K) | n (number of binding sites) ([1]; 303 K) | ΔG^0 ([1]; 310 K) | R (binding distance) ([1]; 310 K) | Kq ([1]; 310 K) | Ksv ([1]; 310 K) | n (number of binding sites) ([1]; 310 K) | fluorescence of HSA quenched by pesticide ([1]; 310 K) | ΔH^0 [1] | ΔS^0 [1] | Binding distance/r [1] | Number of binding sites/n [1] | further results
CNC(=O)Oc1ccccc1C(C)C [Isoprocarb, isoprocarb] | 30154.52708 | −18.11 | -3.6472 kcal/mol | 2.175 ± 0.070 10^12 M^−1s^−1 | 2.175 ± 0.070 10^4 M^−1 | 0.669 ± 0.004 | -3.9873 kcal/mol | 2.758 ± 0.048 10^12 M^−1s^−1 | 2.758 ± 0.048 10^4 M^−1 | 0.689 ± 0.004 | -4.3274 kcal/mol | 2.338 nm | 3.015 ± 0.043 10^12 M^−1s^−1 | 3.015 ± 0.043 10^4 M^−1 | 0.712 ± 0.009 | quenched | 10.734 kcal/mol | 203.281 J · mol^−1 · K^−1 | 2.338 | 0.7116 | Kd ([1]; Ka (binding constant), 296 K): 2050 µM; Kd ([1]; Ka (binding constant), 303 K): 1300 µM; Kd ([1]; Ka (binding constant), 310 K): 900 µM; α-helix contents ([2]; 5:1 (Pesticide:HSA)): 50.878%; α-helix contents ([2]; 10:1 (Pesticide:HSA)): 49.242%; LD50 [3]: 450 mg/kg; Toxicity [3]: Moderately
CNC(=O)ON=C(C)SC [Methomyl, methomyl] | 52883.69408 | −21.14 | -3.8554 kcal/mol | 3.401 ± 0.068 10^12 M^−1s^−1 | 3.401 ± 0.068 10^4 M^−1 | 0.661 ± 0.003 | -4.4534 kcal/mol | 4.025 ± 0.136 10^12 M^−1s^−1 | 4.025 ± 0.136 10^4 M^−1 | 0.727 ± 0.008 | -5.0514 kcal/mol | 2.145 nm | 5.288 ± 0.093 10^12 M^−1s^−1 | 5.288 ± 0.093 10^4 M^−1 | 0.766 ± 0.002 | quenched | 21.433 kcal/mol | 357.453 J · mol^−1 · K^−1 | 2.145 | 0.7657 | Kd ([1]; 296 K, read-out: Ka (binding constant)): 1460 µM; Kd ([1]; 303 K, read-out: Ka (binding constant)): 579 µM; Kd ([1]; 310 K, read-out: Ka (binding constant)): 283 µM; α-helix contents ([2]; 5:1 (Pesticide:HSA)): 50.756%; α-helix contents ([2]; 10:1 (Pesticide:HSA)): 49.970%; LD50 [3]: 14.7 mg/kg; Toxicity [3]: Highly
CNC(=O)Oc1cccc(C)c1 [Metolcarb, metolcarb] | 44415.60221 | −16.22 | -3.1766 kcal/mol | 3.261 ± 0.020 10^12 M^−1s^−1 | 3.261 ± 0.020 10^4 M^−1 | 0.564 ± 0.012 | -3.5268 kcal/mol | 3.415 ± 0.159 10^12 M^−1s^−1 | 3.415 ± 0.159 10^4 M^−1 | 0.587 ± 0.001 | -3.8772 kcal/mol | 2.525 nm | 4.442 ± 0.118 10^12 M^−1s^−1 | 4.442 ± 0.118 10^4 M^−1 | 0.616 ± 0.003 | quenched | 11.633 kcal/mol | 209.338 J · mol^−1 · K^−1 | 2.525 | 0.6156 | Kd ([1]; Ka (binding constant), 296 K): 4450 µM; Kd ([1]; Ka (binding constant), 303 K): 2950 µM; Kd ([1]; Ka (binding constant), 310 K): 1820 µM; α-helix contents ([2]; 5:1 (Pesticide:HSA)): 53.549%; α-helix contents ([2]; 10:1 (Pesticide:HSA)): 53.215%; LD50 [3]: 268 mg/kg; Toxicity [3]: Moderately
